Measurements reported in US5041567A, “Antibacterial monic acid derivatives” (Beecham Group plc, priority 1982, dated 1991).
≈ marks a conversion by molar mass, not a printed value. Read-outs that look alike come from different tables or passages of the source.

Tests used:
[1] = tested on: S. dublin S7; test: MIC against veterinary bacteria in vitro; conditions: Salmonella enterica, S7, 18 h
Protocol: (§1) The activity of the compounds of the Examples against various veterinarily important bacteria, was assayed in vitro using two-fold serial dilutions in Diagnostic Sensitivity Test Agar inoculated with 10^4 organisms.

[2] = tested on: M. pneumoniae ATCC 15492; test: MIC against mycoplasma in vitro; type: cell-based; conditions: Mycoplasmoides pneumoniae, ATCC15492, 144 h; M. pneumoniae ATCC 15492; 6 days, 37° C.; read-out: MIC
[3] = tested on: Bacillus subtilis 6633; test: MIC against human bacteria in vitro; type: cell-based; conditions: Bacillus subtilis 6633; 5% chocolated horse blood agar, 18 hours; read-out: MIC
[4] = tested on: Staph. aureus Oxford; test: MIC against veterinary bacteria in vitro; conditions: Staphylococcus aureus, 18 h
Protocol: as §1

[5] = tested on: M. hyosynoviae ATCC 25591; test: MIC against mycoplasma in vitro; type: cell-based; conditions: 144 h; M. hyosynoviae ATCC 25591; 6 days, 37° C.; read-out: MIC
[6] = tested on: M. suipneumoniae PW/C/210; test: MIC against mycoplasma in vitro; type: cell-based; conditions: Mesomycoplasma hyopneumoniae, 144 h; M. suipneumoniae PW/C/210; 6 days, 37° C.; read-out: MIC
[7] = tested on: Strep. pneumoniae CN33; test: MIC against human bacteria in vitro; type: cell-based; conditions: Streptococcus pneumoniae
[8] = tested on: Past. multocida PA2; test: MIC against veterinary bacteria in vitro; conditions: Pasteurella multocida, PA2, 18 h
Protocol: as §1

[9] = tested on: Pasteurella multocida 1633; test: MIC against human bacteria in vitro; type: cell-based; conditions: Pasteurella multocida 1633; 5% chocolated horse blood agar, 18 hours; read-out: MIC
[10] = tested on: Staph. aureus W2827; test: MIC against human bacteria in vitro; type: cell-based; conditions: Staphylococcus aureus; Staph. aureus W2827; 5% chocolated horse blood agar, 18 hours; read-out: MIC
[11] = tested on: Corynebacterium xerosis 9755; test: MIC against human bacteria in vitro; type: cell-based; conditions: Corynebacterium xerosis 9755; 5% chocolated horse blood agar, 18 hours; read-out: MIC
[12] = tested on: M. suipneumoniae HK(2); test: MIC against mycoplasma in vitro; type: cell-based; conditions: Mesomycoplasma hyopneumoniae, 144 h; M. suipneumoniae HK(2); 6 days, 37° C.; read-out: MIC
[13] = tested on: M. hyorhinis ATCC 23234; test: MIC against mycoplasma in vitro; type: cell-based; conditions: Mesomycoplasma hyorhinis, ATCC23234, 144 h; M. hyorhinis ATCC 23234; 6 days, 37° C.; read-out: MIC
[14] = tested on: M. suipneumoniae LABER; test: MIC against mycoplasma in vitro; type: cell-based; conditions: Mesomycoplasma hyopneumoniae, 144 h; M. suipneumoniae LABER; 6 days, 37° C.; read-out: MIC
[15] = tested on: M. suipneumoniae JF 435; test: MIC against mycoplasma in vitro; type: cell-based; conditions: Mesomycoplasma hyopneumoniae, JF435, 144 h; M. suipneumoniae JF 435; 6 days, 37° C.; read-out: MIC
[16] = tested on: M. hyorhinis ATCC 25021; test: MIC against mycoplasma in vitro; type: cell-based; conditions: Mesomycoplasma hyorhinis, ATCC25021, 144 h; M. hyorhinis ATCC 25021; 6 days, 37° C.; read-out: MIC
[17] = tested on: M. dispar NCTC 10125; test: MIC against mycoplasma in vitro; type: cell-based; conditions: 144 h
[18] = tested on: Strep. agalactiae SPA1; test: MIC against veterinary bacteria in vitro; conditions: Streptococcus agalactiae, SPA1, 18 h
Protocol: as §1

[19] = tested on: Staph. aureus B4 (pen. resistant); test: MIC against veterinary bacteria in vitro; conditions: Staphylococcus aureus, 18 h
Protocol: as §1

[20] = tested on: M. suipneumoniae ATCC 25095; test: MIC against mycoplasma in vitro; type: cell-based; conditions: Mesomycoplasma hyopneumoniae, ATCC25095, 144 h; M. suipneumoniae ATCC 25095; 6 days, 37° C.; read-out: MIC
[21] = tested on: Sarcina lutea 8340; test: MIC against human bacteria in vitro; type: cell-based; conditions: Micrococcus luteus; Sarcina lutea 8340; 5% chocolated horse blood agar, 18 hours; read-out: MIC
[22] = tested on: Staph. aureus Oxford; test: MIC against human bacteria in vitro; type: cell-based; conditions: Staphylococcus aureus; Staph. aureus Oxford; 5% chocolated horse blood agar, 18 hours; read-out: MIC
[23] = tested on: M. suipneumoniae UCD 1; test: MIC against mycoplasma in vitro; type: cell-based; conditions: Mesomycoplasma hyopneumoniae, UCD1, 144 h; M. suipneumoniae UCD 1; 6 days, 37° C.; read-out: MIC
[24] = tested on: Staph. aureus Russell; test: MIC against human bacteria in vitro; type: cell-based; conditions: Staphylococcus aureus; Staph. aureus Russell; 5% chocolated horse blood agar, 18 hours; read-out: MIC
[25] = tested on: M. suipneumoniae NCTC 10110; test: MIC against mycoplasma in vitro; type: cell-based; conditions: Mesomycoplasma hyopneumoniae, NCTC10110, 144 h; M. suipneumoniae NCTC 10110; 6 days, 37° C.; read-out: MIC
[26] = tested on: Haemophilus influenzae Wy21; test: MIC against human bacteria in vitro; type: cell-based; conditions: Haemophilus influenzae Wy21; 5% chocolated horse blood agar, 18 hours; read-out: MIC
[27] = tested on: Strep. suis (group D) SPS11; test: MIC against veterinary bacteria in vitro; conditions: Streptococcus suis, 18 h
Protocol: as §1

[28] = tested on: Past. multocida PA1; test: MIC against veterinary bacteria in vitro; conditions: Pasteurella multocida, PA1, 18 h
Protocol: as §1

[29] = tested on: Erysipelothrix rhusiopathiae NCTC 8163; test: MIC against veterinary bacteria in vitro; conditions: Erysipelothrix rhusiopathiae, NCTC8163, 18 h
Protocol: as §1

[30] = tested on: E. coli ESS; test: MIC against human bacteria in vitro; type: cell-based; conditions: Escherichia coli
[31] = tested on: Strep. agalactiae 2788-B; test: MIC against human bacteria in vitro; type: cell-based; conditions: Streptococcus agalactiae; Strep. agalactiae 2788-B; 5% chocolated horse blood agar, 18 hours; read-out: MIC
[32] = tested on: Corynebacterium pyogenes CY1; test: MIC against veterinary bacteria in vitro; conditions: CY1, 18 h
Protocol: as §1

[33] = tested on: Bord. bronchiseptica B08; test: MIC against veterinary bacteria in vitro; conditions: Bordetella bronchiseptica, B08, 18 h
Protocol: as §1

[34] = tested on: M. suipneumoniae J2206/183^b; test: MIC against mycoplasma in vitro; type: cell-based; conditions: Mesomycoplasma hyopneumoniae, 144 h; M. suipneumoniae J2206/183^b; 6 days, 37° C.; read-out: MIC
[35] = tested on: Past. haemolytica PA5; test: MIC against veterinary bacteria in vitro; conditions: Mannheimia haemolytica, PA5, 18 h
Protocol: as §1

[36] = M. dispar NCTC 10125, 6 days, 37° C., read-out: MIC

Row | Structure (SMILES) | MIC [1] [µg/mL] | MIC [2] [µg/mL] | MIC [3] [µg/mL] | MIC [4] [µg/mL] | MIC [5] [µg/mL] | MIC [6] [µg/mL] | MIC [8] [µg/mL] | MIC [9] [µg/mL] | MIC [10] [µg/mL] | MIC [11] [µg/mL] | MIC [12] [µg/mL] | MIC [13] [µg/mL] | MIC [14] [µg/mL] | MIC [15] [µg/mL] | MIC [16] [µg/mL] | MIC [18] [µg/mL] | MIC [19] [µg/mL] | MIC [20] [µg/mL] | MIC [21] [µg/mL] | MIC [22] [µg/mL] | also measured
1 | C/C(=C\c1ncc(-c2ccccc2)s1)C[C@@H]1OC[C@H](C[C@@H]2O[C@H]2[C@@H](C)[C@H](C)O)[C@@H](O)[C@H]1O [Example 29, 2-(1-Normon-2-yl)-5-phenylthiazole A] | > 80 | > 10 | 50 (≈ 109 µM) | 10 (≈ 21.8 µM) | > 10 | 10 (≈ 21.8 µM) | 80 (≈ 174 µM) | > 100 | 50 (≈ 109 µM) | > 100 | > 10 | > 10 | 10 (≈ 21.8 µM) | > 10 | 10 (≈ 21.8 µM) | 40 (≈ 87 µM) | 10 (≈ 21.8 µM) | 10 (≈ 21.8 µM) | > 100 | 25 (≈ 54.4 µM) | MIC ([7]; Strep. pneumoniae CN33, 5% chocolated horse blood agar, 18 hours, read-out: MIC): 50 µg/mL (≈ 109 µM); MIC [17]: 2.5 µg/mL (≈ 5.44 µM); MIC [23]: > 10 µg/mL; MIC [24]: 100 µg/mL (≈ 218 µM); MIC [25]: > 10 µg/mL; MIC [26]: 50 µg/mL (≈ 109 µM); MIC [27]: > 80 µg/mL; MIC [28]: > 80 µg/mL; MIC [29]: > 80 µg/mL; MIC ([30]; 18 h): > 100 µg/mL; MIC [31]: 50 µg/mL (≈ 109 µM); MIC [32]: > 80 µg/mL; MIC [33]: > 80 µg/mL; MIC [34]: > 10 µg/mL; MIC [35]: > 80 µg/mL
2 | C/C(=C\c1nc(C)c(-c2ccccc2)o1)C[C@@H]1OC[C@H](C[C@@H]2O[C@H]2[C@@H](C)[C@H](C)O)[C@@H](O)[C@H]1O [Example 40, 4-Methyl-2-(1-normon-2-yl)-5-phenyloxazole A] | > 80 | > 10 | 100 (≈ 219 µM) | 80 (≈ 175 µM) | > 10 | > 10 | 80 (≈ 175 µM) | 100 (≈ 219 µM) | > 100 | > 100 | > 10 | > 10 | > 10 | > 10 | > 10 | > 80 | 80 (≈ 175 µM) | > 10 | > 100 | 100 (≈ 219 µM) | MIC ([7]; CN33, 18 h): > 100 µg/mL; MIC [17, 36]: > 10 µg/mL; MIC [23]: > 10 µg/mL; MIC [24]: 100 µg/mL (≈ 219 µM); MIC [25]: > 10 µg/mL; MIC [26]: 50 µg/mL (≈ 109 µM); MIC [27]: > 80 µg/mL; MIC [28]: 80 µg/mL (≈ 175 µM); MIC [29]: > 80 µg/mL; MIC ([30]; 18 h): 100 µg/mL (≈ 219 µM); MIC [31]: > 100 µg/mL; MIC [32]: 80 µg/mL (≈ 175 µM); MIC [33]: > 80 µg/mL; MIC [34]: > 10 µg/mL; MIC [35]: > 80 µg/mL
3 | C/C(=C\c1nc(-c2ccccc2)c(-c2ccccc2)o1)C[C@@H]1OC[C@H](C[C@@H]2O[C@H]2[C@@H](C)[C@H](C)O)[C@@H](O)[C@H]1O [Example 41, 4,5-Diphenyl-2-(1-normon-2-yl)oxazole A] | > 80 | > 10 | 100 (≈ 192 µM) | 40 (≈ 77 µM) | > 10 | > 10 | 20 (≈ 38.5 µM) | 25 (≈ 48.1 µM) | > 100 | > 100 | > 10 | > 10 | > 10 | > 10 | > 10 | 40 (≈ 77 µM) | 40 (≈ 77 µM) | > 10 | > 100 | 100 (≈ 192 µM) | MIC ([7]; CN33, 18 h): > 100 µg/mL; MIC [17, 36]: > 10 µg/mL; MIC [23]: > 10 µg/mL; MIC [24]: > 100 µg/mL; MIC [25]: > 10 µg/mL; MIC [26]: 25 µg/mL (≈ 48.1 µM); MIC [27]: > 80 µg/mL; MIC [28]: 40 µg/mL (≈ 77 µM); MIC [29]: > 80 µg/mL; MIC ([30]; E. coli ESS, 5% chocolated horse blood agar, 18 hours, read-out: MIC): 50 µg/mL (≈ 96.2 µM); MIC [31]: > 100 µg/mL; MIC [32]: 40 µg/mL (≈ 77 µM); MIC [33]: > 80 µg/mL; MIC [34]: > 10 µg/mL; MIC [35]: > 80 µg/mL
